Assay results as given in article PMC9056950, “Synthesis and biochemical evaluation of cephalosporin analogues equipped with chemical tethers” (RSC Advances, 2020).

target: T1, PBP3 (Escherichia coli, UniProt P0AD68); experiment: biochemical; parameters: Thermal shift assay, Protein Thermal Shift dye, 3 uM E. coli PBP3, change in melting temperature; conditions: read-out: Average DTm/°C
T1 construct: gene ftsI
T1 sequence (P0AD68 44-588): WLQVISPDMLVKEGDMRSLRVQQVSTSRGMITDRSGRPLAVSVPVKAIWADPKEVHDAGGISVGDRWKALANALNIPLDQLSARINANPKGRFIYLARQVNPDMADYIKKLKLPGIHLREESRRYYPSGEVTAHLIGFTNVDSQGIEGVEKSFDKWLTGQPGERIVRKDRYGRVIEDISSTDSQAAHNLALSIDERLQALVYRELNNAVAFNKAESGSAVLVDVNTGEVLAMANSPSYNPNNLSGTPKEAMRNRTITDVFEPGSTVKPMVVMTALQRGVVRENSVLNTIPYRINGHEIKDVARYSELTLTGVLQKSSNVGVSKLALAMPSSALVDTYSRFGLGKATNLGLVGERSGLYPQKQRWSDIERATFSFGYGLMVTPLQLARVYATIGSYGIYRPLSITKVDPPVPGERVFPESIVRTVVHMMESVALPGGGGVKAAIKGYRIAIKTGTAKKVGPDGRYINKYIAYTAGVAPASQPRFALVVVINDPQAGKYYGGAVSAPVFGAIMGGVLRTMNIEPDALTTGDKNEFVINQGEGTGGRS
Description: The thermal shift assay was carried out using the Protein Thermal Shift™ assay kit (Applied Biosystems). 3 μM of purified E. coli PBP3 was incubated with the β-lactam analogues at 300 μM concentration in a mixture containing the Protein Thermal Shift™ Dye. The samples were then heated in a StepOnePlus™ Real-Time PCR System from 25 to 95 °C at a rate of 1 °C min^−1. Tests were carried out in triplicate and the averages plotted as the negative first derivative vs. temperature. Reference wells, i.e. solutions consisting only of only PBP3 with dye, PBP3 only, and dye only, were used as controls. Melting temperature (Tm) values were determined with and without each compound, and the change in melting temperature (ΔTm) was obtained, Fig. 2. The thermal shift assay with PBP4 was carried out using the protocol described for PBP3, with the follow deriviatisation: 500 nM of purified Bacillus subtilis PBP4 was incubated with 50 μM of the β-lactam analogues. A thermal shift assay was used to investigate the binding of the cephalexin analogues to the therapeutic target, PBP, in vitro. This assay provides a fast and inexpensive method of detecting a ligand binding to a protein of interest. Briefly, the protein is gradually heated in the presence of a fluorescent dye that binds non-specifically to the hydrophobic surfaces. […] A change in the melting temperature (Tm) when the protein is heated in the presence of a ligand, indicates a protein–ligand interaction. […] The PBPs can be divided into two main categories: high molecular mass (HMM) and low molecular mass (LMM).[13] PBP3 was chosen as a representative HMM PBP, and PBP4 as a representative LMM PBP. Cephalexin (1) has been previously reported to show good binding affinities for both PBP3 and PBP4.[14] Penicillin (11) and cefpodoxime (12) were included as positive controls. A truncated version of the ftsI gene formed of residues W44-S588, encoding only the soluble domain, was amplified from E. coli BW25113. The resulting construct was inserted into the vector pBADnLIC2005,[40] introducing an N-terminal deca-histidine tag when expressed. The resulting vector was transformed into E. coli MC1061 for expression. Cultures for protein expression were grown in 1 L of Luria–Bertani (LB) broth at 37 °C on an orbital shaker. Expression was induced by addition of 0.01% L-arabinose during mid-log phase of growth. Cultures were further incubated for 16 h at 20 °C, then the cells were harvested by centrifugation. Cell pellets were resuspended in 50 mM KPi pH 7.8, 200 mM NaCl, 10 mM imidazole, 20% glycerol with 1 mM [compound left out] followed by sonication. The lysate was clarified by centrifugation before loading onto a HisTrap HF column (GE Healthcare). To remove any pre-bound ligands, refolding purification was performed by initially washing with the protein unfolding buffer [2 M guanidine HCl, 50 mM KPi (pH 7.8), 200 mM NaCl, 20% glycerol, and 20 mM imidazole] and then performing a gradient wash to the protein refolding buffer [50 mM KPi (pH 7.8), 200 mM NaCl, 20% glycerol, and 20 mM imidazole] before the elution of the protein using the elution buffer [50 mM KPi (pH 7.8), 200 mM NaCl, 20% glycerol, and 500 mM imidazole]. The eluted protein was buffer-exchanged to the buffer 50 mM KPi (pH 7.8), 200 mM NaCl using a HisTrap Desalting (GE Healthcare) column.

SMILES	ΔTm at 300 µM
CC1=C(C(=O)O)N2C(=O)[C@@H](NC(=O)[C@H](NC(=O)CCCC(=O)ON3C(=O)CCC3=O)c3ccccc3)[C@H]2SC1 [compound 6, (6R,7R)-7-[(2R)-2-{5-[(2,5-Dioxopyrrolidin-1-yl)oxy]-5-oxopentanamido}-2-phenylacetamido]-3-methyl-8-oxo-5-thia-1-azabicyclo[4.2.0]oct-2-ene-2-carboxylic acid]	3.21 °C
CC1=C(C(=O)O)N2C(=O)[C@@H](NC(=O)[C@H](NC(=O)CCCC(=O)O)c3ccccc3)[C@H]2SC1 [compound 7, (6R,7R)-7-[(2R)-2-(4-Carboxybutanamido)-2-phenylacetamido]-3-methyl-8-oxo-5-thia-1-azabicyclo[4.2.0]oct-2-ene-2-carboxylic acid]	3.6 °C
COCC1=C(C(=O)O)N2C(=O)[C@@H](NC(=O)/C(=N\OC)c3csc(N)n3)[C@H]2SC1 [compound 12, cefpodoxime]	4.42 °C
CC1=C(C(=O)O)N2C(=O)[C@@H](NC(=O)[C@H](NC(=O)CCCCC3CCSS3)c3ccccc3)[C@H]2SC1 (stereo partly drawn) [compound 5, (6R,7R)-7-[(2R)-2-[5-(1,2-Dithiolan-3-yl)pentanamido]-2-phenylacetamido]-3-methyl-8-oxo-5-thia-1-azabicyclo[4.2.0]oct-2-ene-2-carboxylic acid]	3.01 °C
CC1=C(C(=O)O)N2C(=O)[C@@H](NC(=O)[C@H](NC(=O)CCCCN)c3ccccc3)[C@H]2SC1 [compound 10, (6R,7R)-7-[(2R)-2-(5-Aminopentanamido)-2-phenylacetamido]-3-methyl-8-oxo-5-thia-1-azabicyclo[4.2.0]oct-2-ene-2-carboxylic acid]	2.81 °C
CC1=C(C(=O)O)N2C(=O)[C@@H](NC(=O)[C@H](NC(=O)CCCCCN3C(=O)C=CC3=O)c3ccccc3)[C@H]2SC1 [compound 3, (6R,7R)-7-((R)-2-(6-(2,5-dioxo-2,5-dihyrdo-1H-pyrrol-1-yl)hexanamido)-2-phenylacetamido)-3-methyl-8-oxo-5-thia-1-azabicyclo[4.2.0]oct-2-ene-2-carboxylic acid]	3 °C
C#CCCC(=O)N[C@@H](C(=O)N[C@@H]1C(=O)N2C(C(=O)O)=C(C)CS[C@H]12)c1ccccc1 [compound 4, (6R,7R)-3-Methyl-8-oxo-7-[(2R)-2-(pent-4-ynamido)-2-phenylacetamido]-5-thia-1-azabicyclo[4.2.0]oct-2-ene-2-carboxylic acid]	3.01 °C
CC1=C(C(=O)O)N2C(=O)[C@@H](NC(=O)[C@H](NC(=O)COCC(=O)NCCOCCOCCOCCOCCNC(=O)CCCCCN3C(=O)C=CC3=O)c3ccccc3)[C@H]2SC1 [compound 2, (6R,7R)-7-((R)-30-(2,5-Dioxo-2,5-dihydro-1H-pyrrol-1-yl)-4,8,25-trioxo-2-phenyl-6,12,15,18,21-pentaoxa-3,9,24-triazatriacontanamido)-3-methyl-8-oxo-5-thia-1-azabicyclo[4.2.0]oct-2-ene-2-carboxylic acid]	4.72 °C
CC1=C(C(=O)O)N2C(=O)[C@@H](NC(=O)[C@H](N)c3ccccc3)[C@H]2SC1 [compound 1, cephalexin]	1.61 °C
CC1=C(C(=O)O)N2C(=O)[C@@H](NC(=O)[C@H](NC(=O)OC(C)(C)C)c3ccccc3)[C@H]2SC1 [compound 9, (6R,7R)-7-[(2R)-2-{[(Tert-butoxy)carbonyl]amino}-2-phenylacetamido]-3-methyl-8-oxo-5-thia-1-azabicyclo[4.2.0]oct-2-ene-2-carboxylic acid]	1.61 °C
CC(=O)N[C@@H](C(=O)N[C@@H]1C(=O)N2C(C(=O)O)=C(C)CS[C@H]12)c1ccccc1 [compound 8, (6R,7R)-7-[(2R)-2-Acetamido-2-phenylacetamido]-3-methyl-8-oxo-5-thia-1-azabicyclo[4.2.0]oct-2-ene-2-carboxylic acid]	3.01 °C
